Source: patent US20220324803A1 (Teon Therapeutics, Inc., priority 2019, published 2022)

Each compound was assayed against T1, human Prostanoid EP4 Receptor (EP4) (Homo sapiens, UniProt P35408) (assay: Prostanoid EP4 binding assay (3H-prostaglandin E2 displacement, cell membranes)). Conditions: HEK293 cell membranes with human EP4, 3H-prostaglandin E2, 24° C.
T1 construct: expressed in transfected cells; host or cells: HEK293 (G418 selection); membranes prepared by differential centrifugation
Procedure: HEK293 cells transfected with human Prostanoid EP4 Receptor (EP4) are maintained in DMEM supplemented with L-Glutamine, 10% FBS and 300 μg/ml G418. Cells are harvested and membranes prepared by differential centrifugation, following lysis of the cells in the presence of protease inhibitors, for use in the receptor binding assay. EP4 binding assay is performed in 50 mM HEPES pH7.4, 5 mM MgCl2, 1 mM CaCl2) and 0.2% BSA. Testing compounds are diluted with DMSO to make 8-point 4-fold serial dilution. Cell membrane homogenates are incubated at 24° C. with ^3H-prostaglandin E2 in the absence or presence of the testing compound in assay buffer. Nonspecific binding (Low control: LC) and total binding (High control: HC) are determined in the presence or absence of saturated cold ligand Prostaglandin E2 (PGE2). Specific binding is calculated by subtracting nonspecific binding from total binding. When binding assays are completed, the reaction mixture is filtered rapidly under vacuum through glass fiber filters (GF/C, Packard) presoaked with 0.5% BSA for at least 0.5 hour at room temperature and then washed for 4 times with cold wash buffer (50 mM HEPES pH7.4, 500 mM NaCl, 0.1% BSA) using a 96-sample Perkin Elmer Filtermate Harvester (Unifilter, Packard). The filters are dried for 1 hour at 50 degrees then counted for radioactivity in a scintillation counter using Perkin Elmer Microscint 20 cocktail. ^3H trapped on filter is counted using Perkin Elmer MicroBeta2 Reader. Inhibition is calculated using following equation: % Inhibition=(1−(Assay well−Average_LC)/(Average_HC−Average_LC))×100%. The results are expressed as a percent inhibition of the control radioligand specific binding. Data are analyzed and IC50 is calculated using GraphPad Prism 5 and the model “log(inhibitor) vs. response—Variable slope”. The binding affinity of the compounds is determined by using the Cheng and Prusoff equation Ki=IC50/(1+[radioligand]/Kd).

T1 sequence (P35408 whole entry): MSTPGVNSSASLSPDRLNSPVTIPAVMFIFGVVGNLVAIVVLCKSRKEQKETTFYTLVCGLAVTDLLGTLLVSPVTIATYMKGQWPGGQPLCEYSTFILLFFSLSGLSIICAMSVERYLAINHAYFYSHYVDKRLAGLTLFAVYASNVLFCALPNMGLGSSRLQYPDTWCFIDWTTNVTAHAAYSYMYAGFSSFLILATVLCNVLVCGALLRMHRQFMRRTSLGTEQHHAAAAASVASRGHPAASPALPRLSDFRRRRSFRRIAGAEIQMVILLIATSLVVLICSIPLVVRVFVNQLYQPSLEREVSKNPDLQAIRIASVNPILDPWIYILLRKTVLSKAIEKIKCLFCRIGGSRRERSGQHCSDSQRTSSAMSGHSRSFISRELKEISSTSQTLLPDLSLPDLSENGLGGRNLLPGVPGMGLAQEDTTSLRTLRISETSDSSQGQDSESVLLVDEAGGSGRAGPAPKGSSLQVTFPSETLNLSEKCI

SMILES | Ki [nM]
O=C(N[C@H]1CC2(C1)C[C@H](C(=O)O)C2)c1ncn2cccc(Cc3ccc(C(F)(F)F)cc3)c12 (single isomer, unassigned) [Compound 6A, cis-2-[[8-[[4-(trifluoromethyl)phenyl]methyl]imidazo[1,5-a]pyridine-1-carbonyl]amino]spiro[3.3]heptane-6-carboxylic acid] | > 500
O=C(N[C@H]1CC2(C1)C[C@H](C(=O)O)C2)c1ncn2cccc(Cc3ccc(C(F)(F)F)cc3)c12 (single isomer, unassigned) [Compound 6B, trans-2-[[8-[[4-(trifluoromethyl)phenyl]methyl]imidazo[1,5-a]pyridine-1-carbonyl]amino]spiro[3.3]heptane-6-carboxylic acid] | < 100
CCn1nc(C(=O)N[C@H]2CC3(C2)C[C@H](C(=O)O)C3)c2c(Cc3ccc(C(F)(F)F)cc3)cccc21 (single isomer, unassigned) [Compound 11A, cis-2-[[1-ethyl-4-[[4-(trifluoromethyl)phenyl]methyl]indazole-3-carbonyl]amino]spiro[3.3]heptane-6-carboxylic acid] | 100 to 499
CCn1nc(C(=O)N[C@H]2CC3(C2)C[C@H](C(=O)O)C3)c2c(Cc3ccc(C(F)(F)F)cc3)cccc21 (single isomer, unassigned) [Compound 11B, trans-2-[[1-ethyl-4-[[4-(trifluoromethyl)phenyl]methyl]indazole-3-carbonyl]amino]spiro[3.3]heptane-6-carboxylic acid] | < 100
O=C(NC1CC2(C1)CC(C(=O)O)C2)c1cnn2cccc(Cc3cc4ccccc4cn3)c12 (single isomer, unassigned) [Compound 13B, trans-2-[[4-(3-isoquinolylmethyl)pyrazolo[1,5-a]pyridine-3-carbonyl]amino]spiro[3.3]heptane-6-carboxylic acid] | < 100
C[C@H](NC(=O)c1ncn2cccc(Cc3ccc(C(F)(F)F)cc3)c12)c1ccc(C(=O)O)cc1 [Compound 5, 4-[(1S)-1-[[8-[[4-(trifluoromethyl)phenyl]methyl]imidazo[1,5-a]pyridine-1-carbonyl]amino]ethyl]benzoic acid] | 100 to 499
O=C(O)CC12CC(NC(=O)c3ncn4cccc(Cc5ccc(C(F)(F)F)cc5)c34)(C1)C2 [Compound 17, 2-[3-[[8-[[4-(trifluoromethyl)phenyl]methyl]imidazo[1,5-a]pyridine-1-carbonyl]amino]-1-bicyclo[1.1.1]pentanyl]acetic acid] | 100 to 499
CCn1nc(C(=O)NC23CC(CC(=O)O)(C2)C3)c2c(Cc3ccc(C(F)(F)F)cc3)cccc21 [Compound 19, 2-[3-[[1-ethyl-4-[[4-(trifluoromethyl)phenyl]methyl]indazole-3-carbonyl]amino]-1-bicyclo[1.1.1]pentanyl]acetic acid] | 100 to 499
CC(C)n1nc(C(=O)N[C@@H](C)c2ccc(C(=O)O)cc2)c2c(Cc3ccc(C(F)(F)F)cc3)cccc21 [Compound 20, 4-[(1S)-1-[[1-isopropyl-4-[[4-(trifluoromethyl)phenyl]methyl]indazole-3-carbonyl]amino]ethyl]benzoic acid] | < 100
CC(C)n1nc(C(=O)N[C@H]2CC3(C2)C[C@H](C(=O)O)C3)c2c(Cc3ccc(C(F)(F)F)cc3)cccc21 (stereo partly drawn) [Compound 21, trans-2-[[1-isopropyl-4-[[4-(trifluoromethyl)phenyl]methyl]indazole-3-carbonyl]amino]spiro[3.3]heptane-6-carboxylic acid] | < 100
CC(C)n1nc(C(=O)NC23CC(CC(=O)O)(C2)C3)c2c(Cc3ccc(C(F)(F)F)cc3)cccc21 [Compound 22, 2-[3-[[1-isopropyl-4-[[4-(trifluoromethyl)phenyl]methyl]indazole-3-carbonyl]amino]-1-bicyclo[1.1.1]pentanyl]acetic acid] | > 500
CC(C)Cn1nc(C(=O)N[C@@H](C)c2ccc(C(=O)O)cc2)c2c(Cc3ccc(C(F)(F)F)cc3)cccc21 [Compound 23, 4-[(1S)-1-[[1-isobutyl-4-[[4-(trifluoromethyl)phenyl]methyl]indazole-3-carbonyl]amino]ethyl]benzoic acid] | < 100

Now from value to compound:

Ki [nM] | SMILES
< 100 | CC(C)Cn1nc(C(=O)N[C@H]2CC3(C2)C[C@H](C(=O)O)C3)c2c(Cc3ccc(C(F)(F)F)cc3)cccc21 (stereo partly drawn) [Compound 24, trans-2-[[1-isobutyl-4-[[4-(trifluoromethyl)phenyl]methyl]indazole-3-carbonyl]amino]spiro[3.3]heptane-6-carboxylic acid]
< 100 | CC(C)Cn1nc(C(=O)NC23CC(CC(=O)O)(C2)C3)c2c(Cc3ccc(C(F)(F)F)cc3)cccc21 [Compound 25, 2-[3-[[1-isobutyl-4-[[4-(trifluoromethyl)phenyl]methyl]indazole-3-carbonyl]amino]-1-bicyclo[1.1.1]pentanyl]acetic acid]
< 100 | O=C(O)c1ccc(C2(NC(=O)c3cnn4cccc(Cc5ccc(C(F)(F)F)cc5)c34)CC2)cc1 [Compound 26, 4-[1-[[4-[[4-(trifluoromethyl)phenyl]methyl]pyrazolo[1,5-a]pyridine-3-carbonyl]amino]cyclopropyl]benzoic acid]
< 100 | C[C@@H](NC(=O)c1cnn2cccc(Cc3ccc(C(F)(F)F)cc3)c12)c1ccc(C(=O)O)cc1 [Compound 27, 4-[(1R)-1-[[4-[[4-(trifluoromethyl)phenyl]methyl]pyrazolo[1,5-a]pyridine-3-carbonyl]amino]ethyl]benzoic acid]
100 to 499 | O=C(O)Cc1ccc(NC(=O)c2cnn3cccc(Cc4ccc(C(F)(F)F)cc4)c23)cc1 [Compound 28, 2-[4-[[4-[[4-(trifluoromethyl)phenyl]methyl]pyrazolo[1,5-a]pyridine-3-carbonyl]amino]phenyl]acetic acid]
< 100 | CC(C)n1nc2cccc(Cc3ccc(C(F)(F)F)cc3)c2c1C(=O)N[C@@H](C)c1ccc(C(=O)O)cc1 [Compound 29, 4-[(1S)-1-[[2-isopropyl-4-[[4-(trifluoromethyl)phenyl]methyl]indazole-3-carbonyl]amino]ethyl]benzoic acid]
100 to 499 | CC(C)Cn1nc2cccc(Cc3ccc(C(F)(F)F)cc3)c2c1C(=O)N[C@@H](C)c1ccc(C(=O)O)cc1 [Compound 30, 4-[(1S)-1-[[2-isobutyl-4-[[4-(trifluoromethyl)phenyl]methyl]indazole-3-carbonyl]amino]ethyl]benzoic acid]
> 500 | O=C(Nc1ccc(C2(C(=O)O)CC2)cc1)c1cnn2cccc(Cc3ccc(C(F)(F)F)cc3)c12 [Compound 31, 1-[4-[[4-[[4-(trifluoromethyl)phenyl]methyl]pyrazolo[1,5-a]pyridine-3-carbonyl]amino]phenyl]cyclopropanecarboxylic acid]
> 500 | O=C(N[C@H]1CC[C@@H](C(=O)O)CC1)c1cnn2cccc(Cc3ccc(C(F)(F)F)cc3)c12 [Compound 32, (1s,4s)-4-[[4-[[4-(trifluoromethyl)phenyl]methyl]pyrazolo[1,5-a]pyridine-3-carbonyl]amino]cyclohexanecarboxylic acid]
100 to 499 | O=C(N[C@H]1CC[C@H](C(=O)O)CC1)c1cnn2cccc(Cc3ccc(C(F)(F)F)cc3)c12 [Compound 33, (1r,4r)-4-[[4-[[4-(trifluoromethyl)phenyl]methyl]pyrazolo[1,5-a]pyridine-3-carbonyl]amino]cyclohexanecarboxylic acid]
< 100 | O=C(O)CC1CCC(NC(=O)c2cnn3cccc(Cc4ccc(C(F)(F)F)cc4)c23)CC1 (stereo not drawn) [Compound 34, 2-[4-[[4-[[4-(trifluoromethyl)phenyl]methyl]pyrazolo[1,5-a]pyridine-3-carbonyl]amino]cyclohexyl]acetic acid]
100 to 499 | O=C(O)CC12CCC(NC(=O)c3cnn4cccc(Cc5ccc(C(F)(F)F)cc5)c34)(CC1)CC2 [Compound 35, 2-(4-(4-(4-(trifluoromethyl)benzyl)pyrazolo[1,5-a]pyridine-3-carboxamido)bicyclo[2.2.2]octan-1-yl)acetic acid]
100 to 499 | O=C(NC12CCC(C(=O)O)(CC1)CC2)c1cnn2cccc(Cc3ccc(C(F)(F)F)cc3)c12 [Compound 36, 4-[[4-[[4-(trifluoromethyl)phenyl]methyl]pyrazolo[1,5-a]pyridine-3-carbonyl]amino]bicyclo[2.2.2]octane-1-carboxylic acid]
< 100 | O=C(O)CC1CCC(NC(=O)c2cnn3cccc(Cc4ccc(C(F)(F)F)cc4)c23)C1 (stereo not drawn) [Compound 37, 2-[3-[[4-[[4-(trifluoromethyl)phenyl]methyl]pyrazolo[1,5-a]pyridine-3-carbonyl]amino]cyclopentyl]acetic acid]
< 100 | O=C(O)C[C@H]1CC[C@H](NC(=O)c2cnn3cccc(Cc4ccc(C(F)(F)F)cc4)c23)CC1 [Compound 38, 2-((1r,4r)-4-(4-(4-(trifluoromethyl)benzyl)pyrazolo[1,5-a]pyridine-3-carboxamido)cyclohexyl)acetic acid]
